# Laboratory results from US11806428B2 (HARM REDUCTION THERAPEUTICS, INC., priority 2011, dated 2023).
# How the values were obtained:
# [1] = Prediction of naloxone plasma concentrations with Excel: non-compartmental analysis on mean profiles scaled to the proposed doses; design: species or system human
# [2] = Prediction of naloxone plasma concentrations with WinNonlin Modeling: compartmental pharmacokinetic model and simulation; design: species or system human; conditions: 36 h
# Procedure: The corresponding C max and AUCt-values are as follows (for the total time period of 36 h): […]
# clinical = conditions: both, human, plasma
# [3] = oral administration; cited from earlier work
# [4] = intranasal administration
# [5] = Safety assessment (adverse events, clinical laboratory results, vital signs, ECGs) in the 4-way crossover study; type: in vivo, human
# [6] = predicted for 0.4 mg IV, based on 1 mg IV data excluding the outlying subject
# [7] = predicted for 0.4 mg IV, based on 1 mg IV data, all subjects
# [8] = predicted for 1.2 mg IN, based on 8 mg IN data
# [9] = predicted for 1.2 mg IN, based on 16 mg IN data
# [10] = predicted for 1.6 mg IN, based on 8 mg IN data
# [11] = predicted for 1.6 mg IN, based on 16 mg IN data
# [12] = another subject, Day 44, normal before study drug, rated possibly related
structure (smiles),measurement,setting,value
C=CCN1CC[C@]23c4c5ccc(O)c4O[C@H]2C(=O)CC[C@@]3(O)[C@H]1C5 [naloxone],AUCt,[1]; [6],3.8122 ng·h/mL
same,Cmax,[1]; [6],2.8817 ng/mL
same,AUCt,[1]; [7],4.5789 ng·h/mL
same,Cmax,[1]; [7],4.7352 ng/mL
same,AUCt,[1]; [8],3.1596 ng·h/mL
same,Cmax,[1]; [8],1.5352 ng/mL
same,AUCt,[1]; [9],2.585 ng·h/mL
same,Cmax,[1]; [9],1.0525 ng/mL
same,AUCt,[1]; [10],4.2128 ng·h/mL
same,Cmax,[1]; [10],2.0469 ng/mL
same,AUCt,[1]; [11],3.4467 ng·h/mL
same,Cmax,[1]; [11],1.4034 ng/mL
same,AUCt,[2]; [8],2.8762 ng·h/mL
same,Cmax,[2]; [8],1.5995 ng/mL
same,AUCt,[2]; [9],2.1631 ng·h/mL
same,Cmax,[2]; [9],0.8935 ng/mL
same,AUCt,[2]; [10],3.835 ng·h/mL
same,Cmax,[2]; [10],2.1326 ng/mL
same,AUCt,[2]; [11],2.8841 ng·h/mL
same,Cmax,[2]; [11],1.1913 ng/mL
same,bioavailability,"clinical; other: intranasal, 8 mg",32%
same,bioavailability,"clinical; other: intranasal, 16 mg",27%
same,bioavailability,"clinical; other: sublingual, 16 mg",~2%
same,oral bioavailability,[3],< 3%
same,peak plasma concentrations attained as early as (time after dosing),[4]; earliest,6 min
same,"time to peak plasma concentrations, median",[4]; median,18 min
same,treatment-emergent adverse events (TEAEs),[5]; 1 mg intravenous,4 TEAEs
same,treatment-emergent adverse events (TEAEs),[5]; 8 mg intranasal,3 TEAEs
same,treatment-emergent adverse events (TEAEs),[5]; 16 mg intranasal,5 TEAEs
same,treatment-emergent adverse events (TEAEs),[5]; 16 mg sublingual,1 TEAE
same,changes in ECG,[5]; all treatments,No clinically relevant changes in ECG occurred
same,"deaths, serious adverse events, other significant adverse events",[5]; all treatments,"no deaths, serious adverse events, or other significant adverse events"
same,markedly abnormal change in blood pressure,[5]; all treatments,one subject
same,markedly abnormal changes in pulse rate,[5]; all treatments,Three subjects
same,overall trend in abnormal vital sign changes,[5]; all treatments,No overall trend in abnormal vital sign changes was observed
same,markedly abnormal high SGPT value,[5]; [12],371 U/l
same,markedly abnormal high total bilirubin value,[5]; [12],39.33 µmol/L
same,markedly abnormal low potassium value,[5]; [12],3.3 mmol/L
same,TEAEs of vasovagal attack,"[5]; intranasal application (one after 8 mg, one after 16 mg)",2 subjects
same,TEAEs of vasovagal attack,[5]; intravenous bolus 1 mg,1 subject
same,markedly abnormal high triglyceride value,"[5]; one subject, Day 44, 4.189 mmol/l on Day -9 before study drug",8.355 mmol/L
